Experimental data: US10640506B2, “Cyclobutyl substituted pyrrolopyridine and pyrrolopyrimidines derivatives as JAK inhibitors” (Incyte Corporation, priority 2010, dated 2020)
pIC50: −log10 of the molar value. Where a name gives a salt, the structure may show the parent alone.

Columns and labels:
[1] = target: human JAK1 (a.a. 837-1142) (Homo sapiens, UniProt P23458); assay: In vitro JAK kinase assay (HTRF, phosphorylation of biotinylated peptide), JAK1; format: biochemical; conditions: Table F; 1 mM ATP
Procedure, shortened: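 Phosphorylation of a biotinylated peptide was run at room temperature for 1 hour using the N-terminally His-tagged JAK1 kinase domain (837-1142) from insect cells. After an EDTA stop, Eu-Py20 and SA-APC gave an HTRF read; values are binned potency ranges.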

JAK2 (a.a. 828-1132) = target: T1, JAK2 (a.a. 828-1132) (Homo sapiens, UniProt O60674); assay: In vitro JAK kinase assay (HTRF, phosphorylation of biotinylated peptide), JAK2; format: biochemical; conditions: Table F; 1 mM ATP
T1 construct: JAK2 (a.a. 828-1132); His tag (N)
Procedure, shortened: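 HTRF detection (Eu-Py20, SA-APC, 40 min) of biotinylated-peptide phosphorylation, following a 1 hour room-temperature reaction quenched with 45 mM EDTA. Enzymes: insect-cell-expressed N-terminal His-tagged JAK1 (837-1142) and JAK2 (828-1132) catalytic domains. Activities reported in ranged categories.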

Sequence of human JAK1 (a.a. 837-1142) (P23458 849-1154): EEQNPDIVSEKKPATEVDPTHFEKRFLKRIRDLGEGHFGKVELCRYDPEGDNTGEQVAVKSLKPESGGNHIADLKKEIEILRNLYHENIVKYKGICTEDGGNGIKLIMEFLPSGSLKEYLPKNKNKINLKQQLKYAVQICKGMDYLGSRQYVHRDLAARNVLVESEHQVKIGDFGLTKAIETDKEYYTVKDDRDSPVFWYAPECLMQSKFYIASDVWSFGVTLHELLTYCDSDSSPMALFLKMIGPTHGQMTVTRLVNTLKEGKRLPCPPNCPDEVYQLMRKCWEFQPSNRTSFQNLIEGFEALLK
T1 sequence (O60674 828-1132): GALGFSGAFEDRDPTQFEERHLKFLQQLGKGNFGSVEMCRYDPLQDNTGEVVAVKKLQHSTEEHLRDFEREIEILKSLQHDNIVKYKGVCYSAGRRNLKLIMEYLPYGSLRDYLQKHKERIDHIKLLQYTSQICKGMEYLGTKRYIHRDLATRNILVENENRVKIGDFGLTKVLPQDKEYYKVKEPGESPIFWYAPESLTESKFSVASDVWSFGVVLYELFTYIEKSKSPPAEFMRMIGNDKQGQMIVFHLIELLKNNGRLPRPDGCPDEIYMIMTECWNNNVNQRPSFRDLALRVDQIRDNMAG

Row | Structure (SMILES) | pIC50 [1] | pIC50 (JAK2 (a.a. 828-1132))
1 | N#CC[C@]1(n2cc(-c3ncnc4[nH]ccc34)cn2)C[C@H](N2CCN(C(=O)c3cc(C4=NCCN4)cc(C(F)(F)F)n3)CC2)C1 [Example 73, {trans-3-(4-{[4-(4,5-dihydro-1H-imidazol-2-yl)-6-(trifluoromethyl)pyridin-2-yl]carbonyl}piperazin-1-yl)-1-[4-(7H-pyrrolo[2,3-d]pyrimidin-4-yl)-1H-pyrazol-1-yl]cyclobutyl}acetonitrile] | > 8.00 | 7.60 to 8.00
2 | CN(C)Cc1cc(C(=O)N2CCN([C@H]3C[C@](CC#N)(n4cc(-c5ncnc6[nH]ccc56)cn4)C3)CC2)cc(C(F)F)c1 [Example 74, {trans-3-(4-{3-(difluoromethyl)-5-[(dimethylamino)methyl]benzoyl}piperazin-1-yl)-1-[4-(7H-pyrrolo[2,3-d]pyrimidin-4-yl)-1H-pyrazol-1-yl]cyclobutyl}acetonitrile] | > 8.00 | 7.60 to 8.00
3 | CC(C)(O)c1cc(C(=O)N2CCN([C@H]3C[C@](CC#N)(n4cc(-c5ncnc6[nH]ccc56)cn4)C3)CC2)nc(C(F)(F)F)c1 [Example 75, {trans-3-(4-{[4-(1-hydroxy-1-methylethyl)-6-(trifluoromethyl)pyridin-2-yl]carbonyl}piperazin-1-yl)-1-[4-(7H-pyrrolo[2,3-d]pyrimidin-4-yl)-1H-pyrazol-1-yl]cyclobutyl}acetonitrile] | > 8.00 | 7.60 to 8.00
4 | COCc1cc(C(=O)N2CCN([C@H]3C[C@](CC#N)(n4cc(-c5ncnc6[nH]ccc56)cn4)C3)CC2)nc(C(F)(F)F)c1 [Example 76, {trans-3-(4-{[4-(methoxymethyl)-6-(trifluoromethyl)pyridin-2-yl]carbonyl}piperazin-1-yl)-1-[4-(7H-pyrrolo[2,3-d]pyrimidin-4-yl)-1H-pyrazol-1-yl]cyclobutyl}acetonitrile] | > 8.00 | 7.60 to 8.00
5 | CC(C)(O)c1cc(C(=O)N2CCN([C@H]3C[C@](CC#N)(n4cc(-c5ccnc6[nH]ccc56)cn4)C3)CC2)nc(C(F)(F)F)n1 [Example 78, {trans-3-(4-{[6-(1-hydroxy-1-methylethyl)-2-(trifluoromethyl)pyrimidin-4-yl]carbonyl}piperazin-1-yl)-1-[4-(1H-pyrrolo[2,3-b]pyridin-4-yl)-1H-pyrazol-1-yl]cyclobutyl}acetonitrile] | > 8.00 | 7.00 to 7.60
6 | CC(C)N(C)C(=O)N1CCN([C@H]2C[C@](CC#N)(n3cc(-c4ncnc5[nH]ccc45)cn3)C2)CC1 [Example 79, 4-{trans-3-(cyanomethyl)-3-[4-(7H-pyrrolo[2,3-d]pyrimidin-4-yl)-1H-pyrazol-1-yl]cyclobutyl}-N-isopropyl-N-methylpiperazine-1-carboxamide] | 7.00 to 7.60 | < 7.00
7 | CCCN(C)C(=O)N1CCN([C@H]2C[C@](CC#N)(n3cc(-c4ncnc5[nH]ccc45)cn3)C2)CC1 [Example 80, 4-{trans-3-(cyanomethyl)-3-[4-(7H-pyrrolo[2,3-d]pyrimidin-4-yl)-1H-pyrazol-1-yl]cyclobutyl}-N-methyl-N-propylpiperazine-1-carboxamide] | > 8.00 | 7.00 to 7.60
8 | CCNC(=O)N1CCN([C@H]2C[C@](CC#N)(n3cc(-c4ncnc5[nH]ccc45)cn3)C2)CC1 [Example 81, 4-{trans-3-(cyanomethyl)-3-[4-(7H-pyrrolo[2,3-d]pyrimidin-4-yl)-1H-pyrazol-1-yl]cyclobutyl}-N-ethylpiperazine-1-carboxamide] | > 8.00 | 7.00 to 7.60
9 | CN(C)CCCN(C)C(=O)N1CCN([C@H]2C[C@](CC#N)(n3cc(-c4ncnc5[nH]ccc45)cn3)C2)CC1 [Example 82, 4-{trans-3-(cyanomethyl)-3-[4-(7H-pyrrolo[2,3-d]pyrimidin-4-yl)-1H-pyrazol-1-yl]cyclobutyl}-N-[3-(dimethylamino)propyl]-N-methylpiperazine-1-carboxamide] | 7.60 to 8.00 | < 7.00
10 | CN(C(=O)N1CCN([C@H]2C[C@](CC#N)(n3cc(-c4ncnc5[nH]ccc45)cn3)C2)CC1)C1CC1 [Example 83, 4-{trans-3-(cyanomethyl)-3-[4-(7H-pyrrolo[2,3-d]pyrimidin-4-yl)-1H-pyrazol-1-yl]cyclobutyl}-N-cyclopropyl-N-methylpiperazine-1-carboxamide] | > 8.00 | 7.00 to 7.60
11 | CN(CC(F)(F)F)C(=O)N1CCN([C@H]2C[C@](CC#N)(n3cc(-c4ncnc5[nH]ccc45)cn3)C2)CC1 [Example 84, 4-{trans-3-(cyanomethyl)-3-[4-(7H-pyrrolo[2,3-d]pyrimidin-4-yl)-1H-pyrazol-1-yl]cyclobutyl}-N-methyl-N-(2,2,2-trifluoroethyl)piperazine-1-carboxamide] | 7.00 to 7.60 | < 7.00
12 | CC(C)NC(=O)N1CCN([C@H]2C[C@](CC#N)(n3cc(-c4ncnc5[nH]ccc45)cn3)C2)CC1 [Example 85, 4-{trans-3-(cyanomethyl)-3-[4-(7H-pyrrolo[2,3-d]pyrimidin-4-yl)-1H-pyrazol-1-yl]cyclobutyl}-N-isopropylpiperazine-1-carboxamide] | > 8.00 | 7.00 to 7.60
13 | N#CC[C@]1(n2cc(-c3ncnc4[nH]ccc34)cn2)C[C@H](N2CCN(C(=O)N[C@H]3CC[C@H](O)CC3)CC2)C1 [Example 86, 4-{trans-3-(cyanomethyl)-3-[4-(7H-pyrrolo[2,3-d]pyrimidin-4-yl)-1H-pyrazol-1-yl]cyclobutyl}-N-(trans-4-hydroxycyclohexyl)piperazine-1-carboxamide] | 7.60 to 8.00 | 7.00 to 7.60
14 | N#CC[C@]1(n2cc(-c3ncnc4[nH]ccc34)cn2)C[C@H](N2CCN(C(=O)N[C@@H]3CCOC3)CC2)C1 [Example 87, 4-{trans-3-(cyanomethyl)-3-[4-(7H-pyrrolo[2,3-d]pyrimidin-4-yl)-1H-pyrazol-1-yl]cyclobutyl}-N-[(3R)-tetrahydrofuran-3-yl]piperazine-1-carboxamide] | 7.60 to 8.00 | < 7.00
15 | N#CC[C@]1(n2cc(-c3ncnc4[nH]ccc34)cn2)C[C@H](N2CCN(C(=O)NC3CCCC3)CC2)C1 [Example 90, 4-{trans-3-(cyanomethyl)-3-[4-(7H-pyrrolo[2,3-d]pyrimidin-4-yl)-1H-pyrazol-1-yl]cyclobutyl}-N-cyclopentylpiperazine-1-carboxamide] | > 8.00 | 7.60 to 8.00
16 | N#CC[C@]1(n2cc(-c3ncnc4[nH]ccc34)cn2)C[C@H](N2CCN(C(=O)N3CC[C@H](O)C3)CC2)C1 [Example 91, {trans-3-(4-{[(3S)-3-hydroxypyrrolidin-1-yl]carbonyl}piperazin-1-yl)-1-[4-(7H-pyrrolo[2,3-d]pyrimidin-4-yl)-1H-pyrazol-1-yl]cyclobutyl}acetonitrile] | 7.00 to 7.60 | < 7.00
17 | N#CC[C@]1(n2cc(-c3ncnc4[nH]ccc34)cn2)C[C@H](N2CCN(C(=O)NCC3CC3)CC2)C1 [Example 92, 4-{trans-3-(cyanomethyl)-3-[4-(7H-pyrrolo[2,3-d]pyrimidin-4-yl)-1H-pyrazol-1-yl]cyclobutyl}-N-(cyclopropylmethyl)piperazine-1-carboxamide trifluoroacetate salt] | > 8.00 | 7.00 to 7.60
18 | CC(C)[C@@H](C)NC(=O)N1CCN([C@H]2C[C@](CC#N)(n3cc(-c4ncnc5[nH]ccc45)cn3)C2)CC1 [Example 93, 4-{trans-3-(cyanomethyl)-3-[4-(7H-pyrrolo[2,3-d]pyrimidin-4-yl)-1H-pyrazol-1-yl]cyclobutyl}-N-[(1R)-1,2-dimethylpropyl]piperazine-1-carboxamide] | > 8.00 | 7.00 to 7.60
19 | CC(C)[C@H](C)NC(=O)N1CCN([C@H]2C[C@](CC#N)(n3cc(-c4ncnc5[nH]ccc45)cn3)C2)CC1 [Example 94, 4-{trans-3-(cyanomethyl)-3-[4-(7H-pyrrolo[2,3-d]pyrimidin-4-yl)-1H-pyrazol-1-yl]cyclobutyl}-N-[(1S)-1,2-dimethylpropyl]piperazine-1-carboxamide] | > 8.00 | 7.00 to 7.60
20 | N#CC[C@]1(n2cc(-c3ncnc4[nH]ccc34)cn2)C[C@H](N2CCN(C(N)=O)CC2)C1 [Example 95, 4-{trans-3-(cyanomethyl)-3-[4-(7H-pyrrolo[2,3-d]pyrimidin-4-yl)-1H-pyrazol-1-yl]cyclobutyl}piperazine-1-carboxamide] | > 8.00 | 7.00 to 7.60
21 | C[C@H](NC(=O)N1CCN([C@H]2C[C@](CC#N)(n3cc(-c4ncnc5[nH]ccc45)cn3)C2)CC1)C1CC1 [Example 96, 4-{trans-3-(cyanomethyl)-3-[4-(7H-pyrrolo[2,3-d]pyrimidin-4-yl)-1H-pyrazol-1-yl]cyclobutyl}-N-[(1S)-1-cyclopropylethyl]piperazine-1-carboxamide] | > 8.00 | 7.00 to 7.60
22 | C[C@@H](NC(=O)N1CCN([C@H]2C[C@](CC#N)(n3cc(-c4ncnc5[nH]ccc45)cn3)C2)CC1)C1CC1 [Example 97, 4-{trans-3-(cyanomethyl)-3-[4-(7H-pyrrolo[2,3-d]pyrimidin-4-yl)-1H-pyrazol-1-yl]cyclobutyl}-N-[(1R)-1-cyclopropylethyl]piperazine-1-carboxamide] | > 8.00 | 7.00 to 7.60
23 | N#CC[C@]1(n2cc(-c3ncnc4[nH]ccc34)cn2)C[C@H](N2CCN(C(=O)NC3CC3)CC2)C1 [Example 98, 4-{trans-3-(cyanomethyl)-3-[4-(7H-pyrrolo[2,3-d]pyrimidin-4-yl)-1H-pyrazol-1-yl]cyclobutyl}-N-cyclopropylpiperazine-1-carboxamide] | > 8.00 | < 7.00
24 | N#CC[C@]1(n2cc(-c3ncnc4[nH]ccc34)cn2)C[C@H](N2CCN(C(=O)NC3CCC3)CC2)C1 [Example 99, 4-{trans-3-(cyanomethyl)-3-[4-(7H-pyrrolo[2,3-d]pyrimidin-4-yl)-1H-pyrazol-1-yl]cyclobutyl}-N-cyclobutylpiperazine-1-carboxamide] | > 8.00 | 7.00 to 7.60
